Laboratory results taken from patent US8192962B2, “Processes for detecting toxic substances” (Daikin Industries, Ltd., priority 2001, dated 2012).

Tested on: Mitochondria-located protein genes
Test: DNA chip mRNA expression in yeast, mitochondria-located protein genes (Table 2)
Format: cell-based, Saccharomyces cerevisiae S288C
Conditions: cells incubated two hours with the chemical substance
Outline: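 Whole-genome yeast DNA chip hybridization (65° C., >12 h) of Cy-labeled cDNA from S288C cells exposed 2 h at 25° C. to a sub-lethal toxicant dose in YPD; value is intensity relative to chemical-free control.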

N#Cc1c(Cl)c(Cl)c(Cl)c(C#N)c1Cl [(9), 2,4,5,6-tetrachloro-1,3-benzenedicarbonitrile]
The level of expressed mRNA in the presence of chemical substance/The level of expressed mRNA in the absence of chemical substance (yeast gene YJR121W): 0.8 | The level of expressed mRNA in the presence of chemical substance/The level of expressed mRNA in the absence of chemical substance (yeast gene YKL003C): 1.5 | The level of expressed mRNA in the presence of chemical substance/The level of expressed mRNA in the absence of chemical substance (yeast gene YKL016C): 1.3 | The level of expressed mRNA in the presence of chemical substance/The level of expressed mRNA in the absence of chemical substance (yeast gene YKL141W): 0.8 | The level of expressed mRNA in the presence of chemical substance/The level of expressed mRNA in the absence of chemical substance (yeast gene YKL142W): 5.8 | The level of expressed mRNA in the presence of chemical substance/The level of expressed mRNA in the absence of chemical substance (yeast gene YKL148C): 1.7 | The level of expressed mRNA in the presence of chemical substance/The level of expressed mRNA in the absence of chemical substance (yeast gene YKL170W): 0.9 | The level of expressed mRNA in the presence of chemical substance/The level of expressed mRNA in the absence of chemical substance (yeast gene YKL194C): 1.3 | The level of expressed mRNA in the presence of chemical substance/The level of expressed mRNA in the absence of chemical substance (yeast gene YKR066C): 0.7 | The level of expressed mRNA in the presence of chemical substance/The level of expressed mRNA in the absence of chemical substance (yeast gene YLL041C): 0.7 | The level of expressed mRNA in the presence of chemical substance/The level of expressed mRNA in the absence of chemical substance (yeast gene YLR038C): 0.4 | The level of expressed mRNA in the presence of chemical substance/The level of expressed mRNA in the absence of chemical substance (yeast gene YLR259C): 1.8 | The level of expressed mRNA in the presence of chemical substance/The level of expressed mRNA in the absence of chemical substance (yeast gene YLR295C): 1.4 | The level of expressed mRNA in the presence of chemical substance/The level of expressed mRNA in the absence of chemical substance (yeast gene YLR304C): 0.1 | The level of expressed mRNA in the presence of chemical substance/The level of expressed mRNA in the absence of chemical substance (yeast gene YLR348C): 2.1 | The level of expressed mRNA in the presence of chemical substance/The level of expressed mRNA in the absence of chemical substance (yeast gene YLR395C): 1.0 | The level of expressed mRNA in the presence of chemical substance/The level of expressed mRNA in the absence of chemical substance (yeast gene YML054C): 4.1 | The level of expressed mRNA in the presence of chemical substance/The level of expressed mRNA in the absence of chemical substance (yeast gene YML120C): 1.3 | The level of expressed mRNA in the presence of chemical substance/The level of expressed mRNA in the absence of chemical substance (yeast gene YML129C): 1.4 | The level of expressed mRNA in the presence of chemical substance/The level of expressed mRNA in the absence of chemical substance (yeast gene YMR023C): 1.5 | The level of expressed mRNA in the presence of chemical substance/The level of expressed mRNA in the absence of chemical substance (yeast gene YMR035W): 1.7 | The level of expressed mRNA in the presence of chemical substance/The level of expressed mRNA in the absence of chemical substance (yeast gene YMR083W): 0.4 | The level of expressed mRNA in the presence of chemical substance/The level of expressed mRNA in the absence of chemical substance (yeast gene YMR089C): 5.6 | The level of expressed mRNA in the presence of chemical substance/The level of expressed mRNA in the absence of chemical substance (yeast gene YMR152W): 2.7 | The level of expressed mRNA in the presence of chemical substance/The level of expressed mRNA in the absence of chemical substance (yeast gene YMR203W): 0.7 | The level of expressed mRNA in the presence of chemical substance/The level of expressed mRNA in the absence of chemical substance (yeast gene YMR267W): 0.4 | The level of expressed mRNA in the presence of chemical substance/The level of expressed mRNA in the absence of chemical substance (yeast gene YNL055C): 1.1 | The level of expressed mRNA in the presence of chemical substance/The level of expressed mRNA in the absence of chemical substance (yeast gene YNL071W): 1.1 | The level of expressed mRNA in the presence of chemical substance/The level of expressed mRNA in the absence of chemical substance (yeast gene YNL073W): 0.9 | The level of expressed mRNA in the presence of chemical substance/The level of expressed mRNA in the absence of chemical substance (yeast gene YNL104C): 1.1 | The level of expressed mRNA in the presence of chemical substance/The level of expressed mRNA in the absence of chemical substance (yeast gene YNL256W): 0.8 | The level of expressed mRNA in the presence of chemical substance/The level of expressed mRNA in the absence of chemical substance (yeast gene YOL096C): 1.3 | The level of expressed mRNA in the presence of chemical substance/The level of expressed mRNA in the absence of chemical substance (yeast gene YOR020C): 5.8 | The level of expressed mRNA in the presence of chemical substance/The level of expressed mRNA in the absence of chemical substance (yeast gene YOR037W): 1.3 | The level of expressed mRNA in the presence of chemical substance/The level of expressed mRNA in the absence of chemical substance (yeast gene YOR100C): 2.0 | The level of expressed mRNA in the presence of chemical substance/The level of expressed mRNA in the absence of chemical substance (yeast gene YOR130C): 2.0 | The level of expressed mRNA in the presence of chemical substance/The level of expressed mRNA in the absence of chemical substance (yeast gene YOR142W): 1.1 | The level of expressed mRNA in the presence of chemical substance/The level of expressed mRNA in the absence of chemical substance (yeast gene YOR150W): 0.8 | The level of expressed mRNA in the presence of chemical substance/The level of expressed mRNA in the absence of chemical substance (yeast gene YOR176W): 1.0 | The level of expressed mRNA in the presence of chemical substance/The level of expressed mRNA in the absence of chemical substance (yeast gene YOR187W): 0.6 | The level of expressed mRNA in the presence of chemical substance/The level of expressed mRNA in the absence of chemical substance (yeast gene YOR316C): 1.6 | The level of expressed mRNA in the presence of chemical substance/The level of expressed mRNA in the absence of chemical substance (yeast gene YPL040C): 0.2 | The level of expressed mRNA in the presence of chemical substance/The level of expressed mRNA in the absence of chemical substance (yeast gene YPL134C): 0.6 | The level of expressed mRNA in the presence of chemical substance/The level of expressed mRNA in the absence of chemical substance (yeast gene YPL135W): 0.5 | The level of expressed mRNA in the presence of chemical substance/The level of expressed mRNA in the absence of chemical substance (yeast gene YPL215W): 1.7 | The level of expressed mRNA in the presence of chemical substance/The level of expressed mRNA in the absence of chemical substance (yeast gene YPL262W): 1.4 | The level of expressed mRNA in the presence of chemical substance/The level of expressed mRNA in the absence of chemical substance (yeast gene YPR024W): 3.0 | The level of expressed mRNA in the presence of chemical substance/The level of expressed mRNA in the absence of chemical substance (yeast gene YPR037C): 1.5 | The level of expressed mRNA in the presence of chemical substance/The level of expressed mRNA in the absence of chemical substance (yeast gene YPR047W): 2.1 | The level of expressed mRNA in the presence of chemical substance/The level of expressed mRNA in the absence of chemical substance (yeast gene YPR134W): 1.8
